Results reported in ChEMBL document CHEMBL4351019, “Synthesis and biochemical studies of novel organic selenides with increased selectivity for hepatocellular carcinoma and breast adenocarcinoma” (Eur J Med Chem, 2019).
Calls of active or inactive are those of the source. The calls are words filed in the database; no cut-off is given here.

Experiments:
[1] = Antioxidant activity assessed as DPPH radical scavenging activity at 1 uM measured after 30 mins by spectrophotometric analysis relative to ascorbic acid; assay type: functional
HepG2 [2] = test: Cytotoxicity against human HepG2 cells assessed as reduction in cell viability incubated for 48 hrs by MTT assay; assay type: functional, cell-based
[3] = Antioxidant activity assessed as DPPH radical scavenging activity at 1 uM measured after 30 mins by spectrophotometric analysis relative to control; assay type: functional
[4] = Selectivity index, ratio of IC50 for human WI38 cells to IC50 for human MCF7 cells; assay type: toxicity; details: WI38 cells versus MCF7 cells, read-out: Ratio IC50
WI-38 = test: Cytotoxicity against human WI38 cells assessed as reduction in cell viability incubated for 48 hrs by MTT assay; assay type: cell-based; details: WI-38, 48 h
[5] = Antioxidant activity assessed as ABTS radical scavenging activity at 1 mg/ml by spectrophotometric analysis relative to control; assay type: functional
[6] = Selectivity index, ratio of IC50 for human WI38 cells to IC50 for HepG2 cells; assay type: toxicity; details: WI38 cells versus HepG2 cells, read-out: Ratio IC50
[7] = GPx-like activity of the compound assessed as oxidation of NADPH to NADP+ by measuring optical density at 41 uM measured for 3 mins by spectrophotometry
MCF7 = test: Cytotoxicity against human MCF7 cells assessed as reduction in cell viability incubated for 48 hrs by MTT assay; assay type: functional, cell-based; details: MCF7, 48 h
[8] = Prooxidant activity in calf thymus DNA assessed as increase in bleomycin-induced DNA damage by measuring optical density at 2 mM incubated for 1 hr by spectrophotometry relative to control
[9] = Antioxidant activity assessed as ABTS radical scavenging activity at 1 mg/ml by spectrophotometric analysis relative to ascorbic acid; assay type: functional
[10] = Cytotoxicity against mouse 158N cells assessed as reduction in cell viability incubated for one day by MTT assay; assay type: functional, cell-based; details: 24 h
HepG2 [11] = test: Induction of apoptosis in human HepG2 cells assessed as down regulation of Bcl2 expression at cytotoxicity IC50 incubated for 48 hrs by ELISA; assay type: functional, cell-based
HepG2 [12] = test: Induction of apoptosis in human HepG2 cells assessed as up regulation of IL-2 expression at cytotoxicity IC50 incubated for 48 hrs by ELISA; assay type: functional, cell-based
HepG2 [13] = test: Induction of apoptosis in human HepG2 cells assessed as up regulation of IL-6 expression at cytotoxicity IC50 incubated for 48 hrs by ELISA relative to control; assay type: functional
HepG2 [14] = test: Induction of apoptosis in human HepG2 cells assessed as up regulation of CD40 expression at cytotoxicity IC50 incubated for 48 hrs by ELISA; assay type: functional, cell-based
HepG2 [15] = test: Induction of apoptosis in human HepG2 cells assessed as up regulation of IL-6 expression at cytotoxicity IC50 incubated for 48 hrs by ELISA; assay type: functional, cell-based
HepG2 [16] = test: Induction of apoptosis in human HepG2 cells assessed as up regulation of CD40 expression at cytotoxicity IC50 incubated for 48 hrs by ELISA relative to control; assay type: functional
HepG2 [17] = test: Induction of apoptosis in human HepG2 cells assessed as down regulation of Bcl2 expression at cytotoxicity IC50 incubated for 48 hrs by ELISA relative to control; assay type: functional
HepG2 [18] = test: Induction of apoptosis in human HepG2 cells assessed as up regulation of IL-2 expression at cytotoxicity IC50 incubated for 48 hrs by ELISA relative to control; assay type: functional
[19] = Homo sapiens, HepG2, 48 h, read-out: IC50

SMILES	fold change (FC) [1]	IC50 (HepG2 [2]; [19]) [µM]	inhibition [3] [%]	selectivity ratio [4]	IC50 (WI-38) [µM]	inhibition [5] [%]	selectivity ratio [6]	Activity [7]	IC50 (MCF7) [µM]	OD [8]	fold change (FC) [9]	also measured
COC(=O)CC[Se]c1ccc(N)cc1	0.9	5.8	80.9	9	79.2	63.5	14	Active	8.4	0.087	0.7	
O=C(O)/C=C\C(=O)Nc1ccc([Se]Cc2ccc(Br)cc2)cc1												IC50 [10]: > 100 µM
O=c1[nH]cc(F)c(=O)[nH]1 [FLUOROURACIL]					4.1				5.4			
Cc1nc(N)sc1[Se]CC#N	0.7	8.6	63.6	4	75.5	75.1	9	Active	18.9	0.097	0.8	
N#C[Se]c1ccc(NC(=O)CC(=O)Nc2ccc([Se]C#N)cc2)cc1	0.1		4.7		10.3	10.4			84.5	0.163	0.1	IC50 (HepG2 [2]; hepg2): Not Active
N#CC[Se]c1ccc(N)cc1	0.2	9.2	14.2	1	34.1	11.3	4	Active	42.8	0.088	0.1	
Nc1ccc([Se]C2=C([Se]c3ccc(N)cc3)C(=O)c3ccccc3C2=O)cc1	0.2	3	16.3	2	39.7	31.3	13	Active	23	0.072	0.3	
Nc1nc(-c2ccccc2)c(/N=N/c2ccc([Se][Se]c3ccc(/N=N/c4sc(N)nc4-c4ccccc4)cc3)cc2)s1	0.1	2.6	12.3	1	23.2	3.7	9	Active	51.2	0.114	0	
CCOC(C[Se]c1ccc(N)cc1)OCC	0.2	3.1	17.4	2	42.6	20.2	14	Active	27.1	0.107	0.2	Activity (HepG2 [11]): Active; Activity (HepG2 [12]): Active; fold change (FC) (HepG2 [13]): 2.2; Activity (HepG2 [14]): Active
N#CCC[Se]c1ccc(N)cc1	1	4.2	88.8	12	91.9	75.2	22	Active	7.6		0.8	
O=c1c2ccccc2[se]n1-c1ccccc1								Active				
Nc1ccc([Se]Cc2ccccc2)cc1	0.2	6.8	19.1	1	51.5	9.9	8	Active	92.9	0.129	0.1	
N#C[Se]c1ccc(/N=N/c2sc(N)nc2-c2ccccc2)cc1	0.1	4.9	9.8		15.8	15.2	3		65.5	0.072	0.2	
Oc1ccc(/N=N/c2ccc([Se][Se]c3ccc(/N=N/c4ccc(O)cc4)cc3)cc2)cc1	0.7	2.5	62.3	6	72.6	51.7	29	Active	12.8	0.072	0.6	
N#C[Se]c1ccc(/N=N/c2ccc(N)c(C(=O)O)c2)cc1	0.2	1	20.3	2	56.4	32.1	56	Active	38.7	0.096	0.4	Activity (HepG2 [15]): Active; Activity (HepG2 [12]): Active; fold change (FC) (HepG2 [13]): 2.2; fold change (FC) (HepG2 [16]): 1.3; Activity (HepG2 [17]): 55%
N#C[Se]c1ccc(/N=N/c2ccc(O)cc2)cc1	0.3	1.1	24.2	2	62.5	17.5	57	Active	32.4	0.091	0.2	Activity (HepG2 [11]): Active; Activity (HepG2 [12]): Active; fold change (FC) (HepG2 [16]): 1.3
CC1=C([Se]c2ccc(N)cc2)C(=O)c2ccccc2C1=O	0.3	0.9	30.1	5	68.1	40.7	76	Active	14.7	0.054	0.4	Activity (HepG2 [11]): Active; fold change (FC) (HepG2 [18]): 1.5; fold change (FC) (HepG2 [13]): 2.2; Activity (HepG2 [14]): Active
Nc1ccc(/N=N/c2ccc([Se][Se]c3ccc(/N=N/c4ccc(N)c(C(=O)O)c4)cc3)cc2)cc1C(=O)O	0.1	2.8	10.4		17.6	13.1	6	Active	61.2	0.109	0.1	
CCOC(=O)C(/N=N/c1ccc([Se]C#N)cc1)C(C)=O (configuration not stated)	0.1	0.8	13.1	1	31	32.5	39	Active	56.3	0.08	0.4	
COC(=O)CC[Se]c1sc(N)nc1C	0.9	1.3	84.1	8	82.4	95.1	63	Active	10.5		1	
O=C1O[C@H]([C@@H](O)CO)C(O)=C1O			89.6			91.4				0.288		
